Earlier results, collected in patent US20230191113A1, “METHOD AND APPARATUS FOR CANCER TREATMENT” (Minnesota Medical Physics LLC, priority 2020, published 2023).

Tests used:
A3 receptors = target: T1, A3 receptors (Homo sapiens, UniProt P0DMS8); settings: allosteric enhancer added to A3AR agonist; cited from earlier work
T1 sequence (P0DMS8 1-318): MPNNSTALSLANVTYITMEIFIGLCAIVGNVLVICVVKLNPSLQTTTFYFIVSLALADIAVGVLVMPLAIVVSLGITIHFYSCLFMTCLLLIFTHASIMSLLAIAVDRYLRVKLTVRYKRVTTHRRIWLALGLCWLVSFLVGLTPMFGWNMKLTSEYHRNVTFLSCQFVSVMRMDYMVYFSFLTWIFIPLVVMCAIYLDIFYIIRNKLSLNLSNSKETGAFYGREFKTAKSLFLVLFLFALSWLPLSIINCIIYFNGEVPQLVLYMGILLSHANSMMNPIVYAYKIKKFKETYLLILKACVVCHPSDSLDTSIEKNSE

cancer tumors = settings: cited from earlier work

Structure (SMILES): Clc1ccc(Nc2nc3ccccc3c3nc(C4CCCCC4)[nH]c23)cc1Cl [LUF6000]
- increase of the maximum efficacy of A3 receptors agonists (A3 receptors): 45%

Structure (SMILES): CNC(=O)[C@H]1O[C@@H](n2cnc3c(NCc4cccc(I)c4)nc(Cl)nc32)[C@H](O)[C@@H]1O [CL-IB-MECA]
- increase of the apoptotic rate by one-dimensional EFS (cancer tumors; CL-IB-MECA plus one-dimensional EFS): 0.4 factor
- effect on growth of cancer tumors (cancer tumors; multiple studies, significant dose of A3AR agonist alone): slowed down the growth of cancer tumors
